{"source": "patent US9446039B2", "about": "“Aminoheteroaryl compounds as MTH1 inhibitors” (CEMM—FORSCHUNGSZENTRUM FÜR MOLEKULARE MEDIZIN GMBH, priority 2012, dated 2016)", "format_in_all_cases": "binding", "key": {"[1]": {"target": "SW480 colon carcinoma cells lysate proteins (Homo sapiens, UniProt Q9Y265)", "sequence (Q9Y265 whole entry)": "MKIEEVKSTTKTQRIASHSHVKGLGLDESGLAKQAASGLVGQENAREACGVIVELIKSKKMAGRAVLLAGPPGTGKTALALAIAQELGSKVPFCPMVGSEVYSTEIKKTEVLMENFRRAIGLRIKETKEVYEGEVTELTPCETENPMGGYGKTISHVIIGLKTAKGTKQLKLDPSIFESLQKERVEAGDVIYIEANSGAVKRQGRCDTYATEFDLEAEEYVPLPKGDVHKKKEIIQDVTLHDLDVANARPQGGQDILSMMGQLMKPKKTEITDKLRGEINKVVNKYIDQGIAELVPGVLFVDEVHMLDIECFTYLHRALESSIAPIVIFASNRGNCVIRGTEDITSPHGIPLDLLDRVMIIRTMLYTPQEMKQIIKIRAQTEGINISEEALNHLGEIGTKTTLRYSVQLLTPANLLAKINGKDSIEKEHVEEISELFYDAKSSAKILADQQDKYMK", "conditions": "PreyGene RUVBL1"}, "[2]": {"target": "T1, SW480 colon carcinoma cells lysate proteins (Homo sapiens, UniProt P51659)", "T1 sequence (P51659 1-736)": "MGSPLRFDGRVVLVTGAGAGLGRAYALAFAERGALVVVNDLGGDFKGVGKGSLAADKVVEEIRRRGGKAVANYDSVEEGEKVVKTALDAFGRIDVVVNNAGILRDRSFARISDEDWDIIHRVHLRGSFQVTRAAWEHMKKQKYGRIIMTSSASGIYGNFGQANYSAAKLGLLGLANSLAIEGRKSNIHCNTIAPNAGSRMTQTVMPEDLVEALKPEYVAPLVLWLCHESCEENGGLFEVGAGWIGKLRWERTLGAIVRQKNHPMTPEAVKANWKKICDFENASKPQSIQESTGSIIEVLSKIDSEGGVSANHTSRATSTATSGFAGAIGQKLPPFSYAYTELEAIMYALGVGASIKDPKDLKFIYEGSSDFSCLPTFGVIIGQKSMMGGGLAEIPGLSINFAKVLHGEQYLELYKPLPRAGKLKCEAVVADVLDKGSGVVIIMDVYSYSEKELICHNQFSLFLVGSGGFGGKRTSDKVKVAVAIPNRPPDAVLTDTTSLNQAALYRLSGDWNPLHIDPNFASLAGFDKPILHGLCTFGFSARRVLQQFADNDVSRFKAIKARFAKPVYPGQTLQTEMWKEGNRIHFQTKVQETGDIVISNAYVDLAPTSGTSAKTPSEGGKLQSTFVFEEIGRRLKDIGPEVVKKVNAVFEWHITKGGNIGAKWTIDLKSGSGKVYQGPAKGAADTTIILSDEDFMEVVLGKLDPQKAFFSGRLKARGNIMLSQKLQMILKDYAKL", "conditions": "PreyGene HSD17B4"}, "[3]": {"target": "T2, SW480 colon carcinoma cells lysate proteins (Homo sapiens, UniProt Q15084)", "T2 sequence (Q15084 20-440)": "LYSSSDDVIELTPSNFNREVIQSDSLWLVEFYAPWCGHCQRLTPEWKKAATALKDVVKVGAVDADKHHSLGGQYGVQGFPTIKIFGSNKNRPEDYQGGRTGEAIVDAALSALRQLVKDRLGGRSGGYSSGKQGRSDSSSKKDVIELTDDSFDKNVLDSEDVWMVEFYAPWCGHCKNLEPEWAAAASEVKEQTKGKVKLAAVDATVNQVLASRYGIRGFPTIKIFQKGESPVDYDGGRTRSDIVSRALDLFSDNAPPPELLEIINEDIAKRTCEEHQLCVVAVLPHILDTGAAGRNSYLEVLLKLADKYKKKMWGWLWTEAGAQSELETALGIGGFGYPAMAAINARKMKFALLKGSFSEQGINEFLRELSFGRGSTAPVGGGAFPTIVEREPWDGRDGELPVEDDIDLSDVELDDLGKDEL", "conditions": "PreyGene PDIA6"}, "[4]": {"target": "T3, SW480 colon carcinoma cells lysate proteins (Homo sapiens, UniProt Q15293)", "T3 sequence (Q15293 30-331)": "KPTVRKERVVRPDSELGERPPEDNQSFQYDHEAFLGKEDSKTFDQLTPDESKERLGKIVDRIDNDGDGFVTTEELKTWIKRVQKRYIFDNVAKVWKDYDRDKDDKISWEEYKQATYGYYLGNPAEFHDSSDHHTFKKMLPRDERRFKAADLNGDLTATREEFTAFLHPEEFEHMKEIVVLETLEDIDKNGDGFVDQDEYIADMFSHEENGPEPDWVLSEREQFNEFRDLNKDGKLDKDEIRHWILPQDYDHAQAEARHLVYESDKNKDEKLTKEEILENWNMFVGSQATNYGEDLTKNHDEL", "conditions": "PreyGene RCN1"}, "[5]": {"target": "T4, SW480 colon carcinoma cells lysate proteins (Homo sapiens, UniProt Q7KZF4)", "T4 sequence (Q7KZF4 1-910)": "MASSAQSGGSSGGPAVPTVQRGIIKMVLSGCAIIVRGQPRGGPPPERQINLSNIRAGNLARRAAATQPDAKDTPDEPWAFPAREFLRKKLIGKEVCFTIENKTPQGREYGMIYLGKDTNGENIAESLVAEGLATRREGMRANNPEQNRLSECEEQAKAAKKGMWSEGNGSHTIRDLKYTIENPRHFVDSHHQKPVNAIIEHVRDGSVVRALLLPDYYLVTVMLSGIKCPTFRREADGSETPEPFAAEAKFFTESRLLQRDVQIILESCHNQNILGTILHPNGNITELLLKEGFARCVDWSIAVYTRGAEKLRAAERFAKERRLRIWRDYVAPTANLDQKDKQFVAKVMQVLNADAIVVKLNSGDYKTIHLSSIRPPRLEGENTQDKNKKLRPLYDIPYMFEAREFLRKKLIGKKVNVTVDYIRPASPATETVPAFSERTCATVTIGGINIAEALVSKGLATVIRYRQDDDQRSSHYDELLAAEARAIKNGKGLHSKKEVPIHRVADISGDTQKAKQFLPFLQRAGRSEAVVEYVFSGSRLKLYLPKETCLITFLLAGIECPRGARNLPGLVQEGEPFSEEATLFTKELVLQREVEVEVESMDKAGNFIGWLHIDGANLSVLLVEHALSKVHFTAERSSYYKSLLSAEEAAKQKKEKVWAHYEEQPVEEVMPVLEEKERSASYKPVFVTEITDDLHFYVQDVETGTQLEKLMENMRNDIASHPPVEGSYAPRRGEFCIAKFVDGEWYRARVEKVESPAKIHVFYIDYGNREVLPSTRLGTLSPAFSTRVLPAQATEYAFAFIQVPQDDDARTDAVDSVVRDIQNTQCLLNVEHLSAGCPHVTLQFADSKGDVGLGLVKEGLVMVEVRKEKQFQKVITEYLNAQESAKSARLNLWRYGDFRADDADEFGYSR", "conditions": "PreyGene SND1"}}, "data": [{"smiles": "C[C@H](Oc1cc(-c2cnn(C3CCNCC3)c2)cnc1N)c1c(Cl)ccc(F)c1Cl", "note": "[(5)-crizotinib]", "values": [{"measurement": "AvgP", "setting": "[1]", "value": 0.3864}, {"measurement": "SC.Exp. 1-1", "setting": "[1]", "value": 2}, {"measurement": "SC.Exp. 1-2", "setting": "[1]", "value": 3}, {"measurement": "SC.Exp. 2-1", "setting": "[1]", "value": 0}, {"measurement": "SC.Exp. 2-2", "setting": "[1]", "value": 0}, {"measurement": "Sum (SC.Exp.)", "setting": "[1]", "value": 5}, {"measurement": "AvgP", "setting": "[2]", "value": 0.3179}, {"measurement": "SC.Exp. 1-1", "setting": "[2]", "value": 2}, {"measurement": "SC.Exp. 1-2", "setting": "[2]", "value": 3}, {"measurement": "SC.Exp. 2-1", "setting": "[2]", "value": 0}, {"measurement": "SC.Exp. 2-2", "setting": "[2]", "value": 0}, {"measurement": "Sum (SC.Exp.)", "setting": "[2]", "value": 5}, {"measurement": "AvgP", "setting": "[3]", "value": 0.4427}, {"measurement": "SC.Exp. 1-1", "setting": "[3]", "value": 3}, {"measurement": "SC.Exp. 1-2", "setting": "[3]", "value": 4}, {"measurement": "SC.Exp. 2-1", "setting": "[3]", "value": 0}, {"measurement": "SC.Exp. 2-2", "setting": "[3]", "value": 0}, {"measurement": "Sum (SC.Exp.)", "setting": "[3]", "value": 7}, {"measurement": "AvgP", "setting": "[4]", "value": 0.4191}, {"measurement": "SC.Exp. 1-1", "setting": "[4]", "value": 4}, {"measurement": "SC.Exp. 1-2", "setting": "[4]", "value": 4}, {"measurement": "SC.Exp. 2-1", "setting": "[4]", "value": 0}, {"measurement": "SC.Exp. 2-2", "setting": "[4]", "value": 0}, {"measurement": "Sum (SC.Exp.)", "setting": "[4]", "value": 8}, {"measurement": "AvgP", "setting": "[5]", "value": 0.3957}, {"measurement": "SC.Exp. 1-1", "setting": "[5]", "value": 3}, {"measurement": "SC.Exp. 1-2", "setting": "[5]", "value": 5}, {"measurement": "SC.Exp. 2-1", "setting": "[5]", "value": 0}, {"measurement": "SC.Exp. 2-2", "setting": "[5]", "value": 0}, {"measurement": "Sum (SC.Exp.)", "setting": "[5]", "value": 8}]}]}
